Earlier results in US20250000794A1, “IMPROVED DRUG PROCESSING METHODS TO INCREASE DRUG LOADING” (BOARD OF REGENTS, THE UNIVERSITY OF TEXAS SYSTEM, priority 2021, published 2025).

Conditions: water

## NCCCC[C@H](N)C(=O)O [L-lysine]
  Solubility (g/100 mL) Room Temperature: 150 g/100 mL
